In ChEMBL document CHEMBL3046171, “Synthesis and biological evaluation of gallic acid analogs” (Med Chem Res, 2013):
Activity calls are given as the source filed them. No cut-off for these calls is given here.

Key:
[1] = tested on: CHO; experiment: Cytotoxicity against Cricetulus griseus CHO (Chinese hamster ovary) cells assessed as frequency of third generation of mitotic cells at 1000 uM treated for 3 hr by BrdU assay (reference value: 0%); type: cell-based
[2] = tested on: CHO; experiment: Cytotoxicity against Cricetulus griseus CHO (Chinese hamster ovary) cells assessed as proliferative replication index at 100 uM treated for 3 hr by BrdU assay relative to untreated control (reference value: 100%); type: cell-based
[3] = tested on: CHO; experiment: Cytotoxicity against Cricetulus griseus CHO (Chinese hamster ovary) cells assessed as frequency of first generation of mitotic cells at 50 uM treated for 3 hr by BrdU assay (reference value: 10%); type: cell-based
[4] = tested on: CHO; experiment: Genotoxicity in Cricetulus griseus CHO (Chinese hamster ovary) cells assessed as effect on frequencies of sister chromatid exchange bearing cells at <200 uM by fluorescence-plus-Giemsa technique; type: toxicity, cell-based
[5] = tested on: CHO; experiment: Cytotoxicity against Cricetulus griseus CHO (Chinese hamster ovary) cells assessed as frequency of second generation of mitotic cells at 1000 uM treated for 3 hr by BrdU assay (reference value: 90%); type: cell-based
[6] = tested on: CHO; experiment: Cytotoxicity against Cricetulus griseus CHO (Chinese hamster ovary) cells assessed as proliferative replication index at 1000 uM treated for 3 hr by BrdU assay relative to untreated control (reference value: 100%); type: cell-based
[7] = tested on: CHO; experiment: Genotoxicity in Cricetulus griseus CHO (Chinese hamster ovary) cells assessed as increase in frequencies of chromosomal aberrations bearing cells at 0.5 to 2 mM by Giemsa staining; type: toxicity, cell-based; settings: 2000 µM
[8] = tested on: CHO; experiment: Genotoxicity in Cricetulus griseus CHO (Chinese hamster ovary) cells assessed as slight increase in frequencies of sister chromatid exchange bearing cells at 200 uM by fluorescence-plus-Giemsa technique; type: toxicity, cell-based
[9] = tested on: CHO; experiment: Cytotoxicity against Cricetulus griseus CHO (Chinese hamster ovary) cells assessed as mitotic index at 500 uM treated for 3 hr by Giemsa staining based light microscopic analysis relative to untreated control (reference value: 100%); type: cell-based
[10] = tested on: CHO; experiment: Cytotoxicity against Cricetulus griseus CHO (Chinese hamster ovary) cells assessed as proliferative replication index at 50 uM treated for 3 hr by BrdU assay relative to untreated control (reference value: 100%); type: cell-based
[11] = tested on: CHO; experiment: Genotoxicity in Cricetulus griseus CHO (Chinese hamster ovary) cells assessed as increase in frequencies of sister chromatid exchange bearing cells at 0.5 to 2 mM by fluorescence-plus-Giemsa technique; type: toxicity, cell-based; settings: 2000 µM
[12] = tested on: CHO; experiment: Cytotoxicity against Cricetulus griseus CHO (Chinese hamster ovary) cells assessed as frequency of third generation of mitotic cells at 50 uM treated for 3 hr by BrdU assay (reference value: 0%); type: cell-based
[13] = tested on: CHO; experiment: Genotoxicity in Cricetulus griseus CHO (Chinese hamster ovary) cells assessed as effect on frequencies of chromosomal aberrations bearing cells at <200 uM by Giemsa staining; type: toxicity, cell-based
[14] = tested on: CHO; experiment: Antioxidant activity in Cricetulus griseus CHO (Chinese hamster ovary) cells assessed as protection against H2O2-induced chromosomal aberrations treated for 15 min prior to H2O2 addition measured after 2 hr by Giemsa staining; type: functional, cell-based
[15] = tested on: CHO; experiment: Cytotoxicity against Cricetulus griseus CHO (Chinese hamster ovary) cells assessed as frequency of second generation of mitotic cells at 100 uM treated for 3 hr by BrdU assay (reference value: 90%); type: cell-based
[16] = tested on: CHO; experiment: Cytotoxicity against Cricetulus griseus CHO (Chinese hamster ovary) cells assessed as mitotic index at 100 uM treated for 3 hr by Giemsa staining based light microscopic analysis relative to untreated control (reference value: 100%); type: cell-based
[17] = tested on: CHO; experiment: Cytotoxicity against Cricetulus griseus CHO (Chinese hamster ovary) cells assessed as mitotic index at 200 uM treated for 3 hr by Giemsa staining based light microscopic analysis relative to untreated control (reference value: 100%); type: cell-based
[18] = tested on: CHO; experiment: Cytotoxicity against Cricetulus griseus CHO (Chinese hamster ovary) cells assessed as frequency of second generation of mitotic cells at 50 uM treated for 3 hr by BrdU assay (reference value: 90%); type: cell-based
[19] = tested on: CHO; experiment: Cytotoxicity against Cricetulus griseus CHO (Chinese hamster ovary) cells assessed as mitotic index at 50 uM treated for 3 hr by Giemsa staining based light microscopic analysis relative to untreated control (reference value: 100%); type: cell-based
[20] = tested on: CHO; experiment: Cytotoxicity against Cricetulus griseus CHO (Chinese hamster ovary) cells assessed as frequency of second generation of mitotic cells at 200 uM treated for 3 hr by BrdU assay (reference value: 90%); type: cell-based
[21] = tested on: CHO; experiment: Cytotoxicity against Cricetulus griseus CHO (Chinese hamster ovary) cells assessed as frequency of third generation of mitotic cells at 200 uM treated for 3 hr by BrdU assay (reference value: 0%); type: cell-based
[22] = tested on: CHO; experiment: Cytotoxicity against Cricetulus griseus CHO (Chinese hamster ovary) cells assessed as frequency of first generation of mitotic cells at 1000 uM treated for 3 hr by BrdU assay (reference value: 10%); type: cell-based
[23] = tested on: CHO; experiment: Cytotoxicity against Cricetulus griseus CHO (Chinese hamster ovary) cells assessed as frequency of third generation of mitotic cells at 100 uM treated for 3 hr by BrdU assay (reference value: 0%); type: cell-based
[24] = tested on: CHO; experiment: Cytotoxicity against Cricetulus griseus CHO (Chinese hamster ovary) cells assessed as proliferative replication index at 200 uM treated for 3 hr by BrdU assay relative to untreated control (reference value: 100%); type: cell-based
[25] = tested on: CHO; experiment: Cytotoxicity against Cricetulus griseus CHO (Chinese hamster ovary) cells assessed as frequency of first generation of mitotic cells at 100 uM treated for 3 hr by BrdU assay (reference value: 10%); type: cell-based
[26] = tested on: CHO; experiment: Cytotoxicity against Cricetulus griseus CHO (Chinese hamster ovary) cells assessed as mitotic index at 1000 uM treated for 3 hr by Giemsa staining based light microscopic analysis relative to untreated control (reference value: 100%); type: cell-based
[27] = tested on: CHO; experiment: Cytotoxicity against Cricetulus griseus CHO (Chinese hamster ovary) cells assessed as frequency of first generation of mitotic cells at 200 uM treated for 3 hr by BrdU assay (reference value: 10%); type: cell-based
[28] = tested on: CHO; experiment: Antioxidant activity in Cricetulus griseus CHO (Chinese hamster ovary) cells assessed as proportion of H2O2-induced chromosomal aberrations bearing cells at 200 uM pre-incubated with H202 for 1 hr prior to cell addition by Giemsa staining; type: functional

| SMILES | Activity [1] | Activity [2] | Activity [3] | Activity [4] | Activity [5] | Activity [6] | Activity [7] | Activity [8] | Activity [9] | Activity [10] | Activity [11] | Activity [12] | Activity [13] | Activity [14] | Activity [15] | Activity [16] | Activity [17] | Activity [18] | Activity [19] | Activity [20] | other results |
| --- | --- | --- | --- | --- | --- | --- | --- | --- | --- | --- | --- | --- | --- | --- | --- | --- | --- | --- | --- | --- | --- |
| COCCc1cc(O)c(O)c(O)c1 | 0% | 96% | 6% | Non-toxic | 0% | 0% | Toxic | Toxic | 15.6% | 102% | Toxic | 0% | Non-toxic | Active | 82% | 80.8% | 87.7% | 94% | 79.1% | 66% | Activity [21]: 0%; Activity [22]: 0%; Activity [23]: 0%; Activity [24]: 87%; Activity [25]: 18%; Activity [26]: 0%; Activity [27]: 34%; Activity [28]: 5% |
| OCCc1cc(O)c(O)c(O)c1 [3,4,5-TRIHYDROXYPHENETHYL ALCOHOL] | 0% | 92% | 8% | Non-toxic | 0% | 0% | Toxic | Toxic | 4.3% | 100% | Toxic | 0% | Non-toxic | Active | 75% | 99.1% | 58.3% | 92% | 96.5% | 50% | Activity [21]: 0%; Activity [22]: 0%; Activity [23]: 0%; Activity [24]: 79%; Activity [25]: 25%; Activity [26]: 0%; Activity [27]: 50%; Activity [28]: 5% |
